Reference: patent publication US20180327354A1, “Unnatural Analogues of Calcitriol and Uses Thereof” (Vidasym, Inc., priority 2009, published 2018)
“Also recorded” adds a separate entry of the source. Read-outs that look alike come from different tables or passages of the source.

Key:
[1] = test system: CYP24A1; assay: CYP24A1 expression induction in HL-60 promyelocytic leukemia cells (real-time RT-PCR); type: cell-based; settings: Homo sapiens, HL-60 cells
Description: (§1) Some compounds were tested in HL-60 promyelocytic leukemia cells and a primary culture of human coronary artery smooth muscle cells (HCASMC) for CYP24A1 induction. It is well documented that CYP24A1 has a VDRE in its promoter region and is a specific target gene of VDR (Meyer et al., 2007, J Biol Chem 282: 22344-22352). […] Compounds also were tested in HCASMC for their effects in inducing VDR. To assess the suitability of a compound for modulating immune responses, compounds were tested in HL-60 for their effects in inducing CD14 expression. To assess the suitability of a compound for treating thrombosis, compounds also were tested in HCASMC for their effects in modulating thrombomodulin and thrombospondin-1.
(§2) Compounds are tested in human HL-60 promyelocytic leukemia cells to assess their potency in inducing the expression of CYP24A1 and CD14. HL-60 cells are cultured in IMDM supplemented with 20% heat-inactivated fetal bovine serum at 37° C. in a humidified 5% CO2-95% air atmosphere. Cells are plated into 6 well plates and treated with test agent for 24 h. Cells are lysed with the addition of 1 mL of Trizol and RNA prepared according to the manufacturer's protocol.
(§3) Real-time reverse transcription-PCR is performed with the forward and reverse PCR primers and 250 nM of the TAQMAN™ probe specifically designed for CYP24A1 or CD14. (A TAQMAN™ probe is comprised of a fluorophore covalently attached to the 5′-end of the oligonucleotide probe and a quencher at the 3′-end.) After the data acquisition, the CYP24A1 or CD14 mRNA expression level is normalized to the GAPDH mRNA level. FIGS. 2A and 2B show the results from a typical CYP24A1 (FIG. 2A) and CD14 (FIG. 2B) expression study.

[2] = test system: CD14; assay: CD14 expression induction in HL-60 promyelocytic leukemia cells (real-time RT-PCR); type: cell-based; settings: Homo sapiens, HL-60 cells
Description: as §1, §2, §3

[3] = test system: normal mice; assay: Hypercalcemic side effect profile and serum PTH in normal mice; type: in vivo, Male C57/BL mice; settings: for dose at which compound starts to raise serum Ca: i.p. dosing once daily for 3 consecutive days
Description: The normal mice model is a convenient and quick way to assess the hypercalcemic side effect profile of compounds. At the same time, data on serum PTH can be collected.
Male C57/BL mice at 18-20 g are dosed with the test agent at 100 al/mouse (concentrations as indicated) i.p. once daily for 3 consecutive days or at 10 ml/kg, p.o. gavage, once daily for 5 days. The animals were harvested 24 h after the last dose by anesthetization with ketamine/xylazine. Blood was collected from the aorta. Serum total calcium was measured using the QuantiChrom Calcium Assay kit and/or the Roche Hitachi 912 Chemistry Analyzer. Serum PTH was measured using a PTH Immunoassay. Vehicle control was 100 l/mouse of 5% EtOH/95% propylene glycol for i.p. dosing or 10 ml/kg of 20% Hydroxypropyl-β-Cyclodextrin for p.o. gavage dosing.
For serum chemistry data, group mean±SEM are presented. Differences between vehicle and compound-treated groups are assessed using a one-way ANOVA followed by a Dunnett's post-hoc test. FIGS. 3A and 3B show the results from a typical p.o. gavage dosing study (n=4-9 per group).

[4] = test system: 5/6 nephrectomized uremic rats; assay: Left ventricular hypertrophy in 5/6 nephrectomized uremic rats; type: in vivo, Sprague Dawley rats; settings: 5/6 NX rats; for cardiomyocyte morphology: hematoxylin-eosin
Description: The experimental conditions using the 5/6 (subtotal) nephrectomized rats were as described above. Twenty-four hours after the last dose, the rats were anesthetized with pentobarbital sodium (35 mg/kg, i.p.). The animals were sacrificed by cervical dislocation. The hearts were taken and washed with cold saline. After removing the residual saline with filter paper, the weight of the freshly dissected hearts and left ventricles were measured, and the ratio of left ventricle weight to body weight (LVW/BW) and/or left ventricle weight to heart weight (LVW/HW) were calculated. Thereafter, the left ventricles were rapidly put into liquid nitrogen until ready for histological and immunohistochemical analysis.
To examine the cardiomyocyte morphology, the left ventricular tissue was fixed in a 4% formaldehyde-phosphate-buffered saline (pH 7.4) solution overnight. The samples were embedded in wax and cut into 4 μm sections. The sections were stained with hematoxylin-eosin and examined under a microscope.
To determine the diameter of cardiomyocytes, a previously published method was followed (Xiang et al., 2005, Am J Physiol Endocrinol Metab 288: E125-132). The sections of left ventricles were stained with FITC-labeled wheat germ agglutinin (1:5 dilution) for 2 h at room temperature and then examined under a fluorescence microscope to visualize the myocyte membrane. The relative size of the cardiomyocytes was quantified by measuring the diameter of the myocytes, which was the distance between the two plasma membranes of a cell in longitudinal section. The measurement was done using ImageJ software. Data were obtained from 30 cells randomly selected from 5-10 microscopic fields of left ventricle slides.
Group mean±SEM are presented. Differences between SHAM, vehicle, and treated animals were assessed using a t-test, a one-way ANOVA followed by a Dunnett's post-hoc test, or a two-way ANOVA, followed by a Bonferonni post-hoc test. Similar to the human CKD condition, the 5/6 (subtotal) nephrectomized rats are known to develop left ventricular hypertrophy (Wolf et al., 2000, Journal of Cardiovascular Pharmacology 36: S348-350). Some animals were sacrificed before treatment to evaluate the development of left ventricular hypertrophy.

[5] = Maximal absorbance wavelength and extinction coefficient (spectrophotometer scan); type: physicochemical; settings: for maximal absorbance wavelength / extinction coefficient: 100 μM in 50:50 de-ionized water and ethanol; for extinction coefficient: in M-1·cm-1 (unit assumed)
Description: To determine the maximal absorbance wavelength (ODmax) and the extinction coefficients for the compounds, each compound is diluted in a 50:50 solution (by volume) of de-ionized water and ethanol at 100 μM and scanned by a spectrophotometer.

[6] = 24 h, mRNA normalized to GAPDH, Table 3 summary, some values average of 3 or more determinations, read-out: CYP24A1 EC50
[7] = 24 h, mRNA normalized to GAPDH, Table 3 summary, some values average of 3 or more determinations, read-out: CD14 EC50
[8] = 2 weeks of treatment, 8 weeks after surgery

maximal absorbance wavelength [5] [nm]	extinction coefficient [5]	Structure (SMILES)	EC50 [1, 6] [nM]	EC50 [2, 7] [nM]	dose at which compound starts to raise serum Ca [3] [µg/kg]	effect on LVW/BW ([4]; 0.16 and 0.64 μg/kg, FIG. 17)	effect on LVW/BW (left ventricle weight to body weight) [4, 8]	EC50 ([1]; typical study, FIG. 2A, read-out: EC50 for inducing CYP24A1 expression) [nM]	EC50 ([2]; typical study, FIG. 2B, read-out: EC50 for inducing CD14 expression) [nM]	dose at which compound starts to raise serum calcium ([3]; p.o. gavage once daily for 5 days, FIG. 3A) [µg/kg]	dose at which compound starts to suppress PTH ([3]; p.o. gavage once daily for 5 days, FIG. 3B) [µg/kg]	cardiomyocyte morphology ([4]; 0.01 μg/kg)	effect on LVW/BW ([4]; 0.04 μg/kg alone, 3×/week, i.p. for 2 weeks)	effect on LVW/BW ([4]; 0.04 μg/kg plus losartan (0.025 mg/ml in drinking water))	cardiomyocyte morphology ([4]; 0.16 μg/kg, 3×/week, i.p. for 2 weeks)	cardiomyocyte diameter ([4]; 0.01-0.64 μg/kg, 2 weeks of treatment, FIG. 19)	effect on LVW/HW (left ventricle weight to heart weight) [4, 8]	maximal absorbance wavelength (ODmax) ([5]; FIG. 1, typical absorbance profile) [nm]
253	46990	CCC(O)(CC)CCO[C@H](C)C1CCC2/C(=C/C=C3C[C@@H](O)C4(CC4)[C@H](O)C3)CCCC21C (stereo partly drawn) [Vida-10, (4R,8R)-6-((E)-2-((1S,7αS)-1-((R)-1-(3-ethyl-3-hydroxypentyloxy)ethyl)-7α-methyldihydro-1H-inden-4(2H,5H,6H,7H,7αH)-ylidene)ethylidene)spiro[2.5]octane-4,8-diol]	6.8	0.4	1	significantly reduced	dose-dependent effect on reducing	–	–	–	–	–	–	–	–	–	–	–
254	60100	C=C1[C@H](O)CC(=C/C=C2\CCCC3(C)C2CCC3[C@@H](C)OCCC(O)(CC)CC)C[C@H]1O (stereo partly drawn) [Vida-11, (1R,3R)-5-((E)-2-((1S,3αS,7αS)-1-((R)-1-(3-ethyl-3-hydroxypentyloxy)ethyl)-7α-methyldihydro-1H-inden-4(2H, 5H, 6H, 7H, 7αH)-ylidene)ethylidene)-2-methylenecyclohexane-1,3-diol]	0.8	0.9	0.1	–	reduced LVW/BW at the two lower doses, but not at 0.16 μg/kg	–	–	–	–	–	–	–	–	–	–	–

Structure (SMILES)	maximal absorbance wavelength [5] [nm]	extinction coefficient [5]	EC50 [1, 6] [nM]	EC50 [2, 7] [nM]	dose at which compound starts to raise serum Ca [3] [µg/kg]	effect on LVW/BW ([4]; 0.16 and 0.64 μg/kg, FIG. 17)	effect on LVW/BW (left ventricle weight to body weight) [4, 8]	EC50 ([1]; typical study, FIG. 2A, read-out: EC50 for inducing CYP24A1 expression) [nM]	EC50 ([2]; typical study, FIG. 2B, read-out: EC50 for inducing CD14 expression) [nM]	dose at which compound starts to raise serum calcium ([3]; p.o. gavage once daily for 5 days, FIG. 3A) [µg/kg]	dose at which compound starts to suppress PTH ([3]; p.o. gavage once daily for 5 days, FIG. 3B) [µg/kg]	cardiomyocyte morphology ([4]; 0.01 μg/kg)	effect on LVW/BW ([4]; 0.04 μg/kg alone, 3×/week, i.p. for 2 weeks)	effect on LVW/BW ([4]; 0.04 μg/kg plus losartan (0.025 mg/ml in drinking water))	cardiomyocyte morphology ([4]; 0.16 μg/kg, 3×/week, i.p. for 2 weeks)	cardiomyocyte diameter ([4]; 0.01-0.64 μg/kg, 2 weeks of treatment, FIG. 19)	effect on LVW/HW (left ventricle weight to heart weight) [4, 8]	maximal absorbance wavelength (ODmax) ([5]; FIG. 1, typical absorbance profile) [nm]
C=C1[C@H](O)CC(=C/C=C2\CCCC3(C)C2CCC3[C@@H](C)OC[C@H](C)C(C)(C)O)C[C@H]1O (stereo partly drawn) [Vida-5, (1R,3R)-5-((E)-2-((3αS,7αS)-1-((R)-1-((S)-3-hydroxy-2,3-dimethylbutoxy)ethyl)-7α-methyldihydro-1H-inden-4(2H,5H,6H, 7H, 7αH)-ylidene)ethylidene)-2-methylenecyclohexane-1,3-diol]	253	48360	7.3	3.7	1	–	significantly reduces; also recorded: dose-dependent effect on reducing	5.6	4.1	5	0.05	improved the morphology of the cardiomyocytes	completely normalized LVW/BW	completely normalized LVW/BW	nearly restored the morphology of the cardiomyocytes back to the Sham level	decreases cardiomyocytes diameter; also recorded: significantly reduced	significantly reduces; also recorded: dose-dependent effect on reducing	253
